# In PubChem BioAssay (NCI):
# “And” between values parts separate entries of the source, which are not always exact repeats. Equal entries are not always repeated.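 Results reflect a 48-hour exposure of cells in 96-well plates to compound at five concentrations. Abbreviation: GI50, concentration required for 50% inhibition of growth. TGI is the concentration that stops growth completely.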
# How the values were obtained:
# Assay in all cases: inhibition of tumour cell growth, NCI panel, 48 h
# [1] = test system: A498 renal
# [2] = test system: ACHN renal
# [3] = test system: HCT-15 colon
# [4] = test system: HS 578T breast
# [5] = test system: KM12 colon
# [6] = test system: MDA-MB-435
# [7] = test system: MOLT-4 leukemia
# [8] = test system: SF-268 CNS
# [9] = test system: TK-10 renal
# [10] = test system: U251 CNS
SMILES,GI50 [1] [µM],TGI [1] [µM],GI50 [2] [µM],TGI [2] [µM],GI50 [3] [µM],TGI [3] [µM],GI50 [4] [µM],TGI [4] [µM],GI50 [5],TGI [5] [µM],GI50 [6] [µM],TGI [6] [µM],GI50 [7] [µM],TGI [7] [µM],GI50 [8],TGI [8] [µM],GI50 [9] [µM],TGI [9] [µM],GI50 [10] [µM],TGI [10] [µM]
CCS/C(Nc1ccccc1)=C(\C#N)C(=O)Nc1ccc(OC)cc1,2.54,26.6,5.04,> 100,1.19,> 100,4.07,> 100,2.8 µM,> 100,0.37,1.89,2.61,> 100,6.8 µM,> 100,24.3,> 100,4.42,> 100
FC(F)(F)c1ccc(-c2cnc(Br)nc2NC2CCCCCC2)cc1,40,> 100,> 100,> 100,55.2,> 100,> 100,> 100,52 µM,> 100,> 100,> 100,41,> 100,> 100 µM,> 100,> 100,> 100,75,> 100
O=C(/C=C/c1ccco1)Nc1ncc(Cc2ccc(F)cc2)s1,0.027,0.0975,0.0749,> 100,0.0461,> 100,0.124,> 100,0.0486 µM,> 100,0.0219,0.0558,0.0825,> 100,0.201 µM,> 100,10.2,> 100,0.0615,> 100
COc1ccc(C(O)c2cc3c(N)c(C(=O)Nc4cccc(Br)c4)sc3nc2C)cc1 (stereo unspecified),0.0536,0.231,0.23,> 46.2,0.121,> 43,0.101,> 21.7,0.117 µM,–,0.0202,0.05,0.14,> 52.8,0.29 µM,> 32.6,9.26,> 95.1,0.119,> 41.1
Fc1ccc(-c2ncn(C3CCNCC3)c2-c2ccnc(Oc3cccc(F)c3)n2)cc1,> 25,> 25,8.58,> 25,> 18,> 25,> 12,24.8,13.6 µM,> 25,6.57,> 19.4,12.7,> 25,> 23.3 µM,> 25,17.1,> 25,9.74,> 25
CC(=O)/C(C)=N/N/C(N)=N\S(=O)(=O)c1cc(C(=O)Nc2ccccc2)c(Cl)cc1SCc1ccccc1,55.9,> 100,7.89,> 100,> 100,> 100,> 100,> 100,60.2 µM,> 100,34.4,> 100,3.73,56.3,40.4 µM,> 100,62.4,> 100,27.7,> 100
Cn1c(=O)c2[nH]c(COc3ccc(C(C)(C)C)cc3)nc2n(C)c1=O,4.94,60.1,9.58,89.8,19.9,> 100,20.2,> 100,15.9 µM,44,4.09,35.4,3.94,31.2,14.1 µM,> 100,23.9,99.6,37.5,> 100
O=C(/C=C\c1ccnc2ccccc12)c1ccc([N+](=O)[O-])cc1,1.68,> 100,14.6,> 100,2.55,9.2,27.3,> 96,3 µM,11.1,2.24,6.55,4.21,> 83,21.6 µM,> 82.8,21.3,> 100,10.6,41.6
COc1ccc2c3c(c(OCCCN(C)C)nc2c1)-c1ccc(Cl)cc1C3=O,5.66,16.5,1.26,4.26,1.79,10.6,13.3,34.3,4.01 µM,18,5.53,18.7,0.833,38.2,6.42 µM,21.8,5.39,15.3,4.74,16.6
Cn1ccnc1C(=O)/C=C/c1ccc(C(=O)Nc2nc3ccccc3[nH]2)cc1,4.71,> 25,11,> 25,0.864,> 25,5.99,> 25,1.12 µM,> 25,2.87,19.8,7.26,> 25,2.41 µM,> 25,13.3,> 25,0.916,> 25
Oc1ccc2ccccc2c1N=Nc1ccccc1,–,> 100,–,> 100,–,> 100,–,> 100,4.95 µM and 32.4 µM,> 100,–,> 100,–,> 100,25 µM and > 63.8 µM,> 100,–,> 100,–,> 100
COc1ccc2c(c1)OC13Oc4cc(OC)ccc4C=C1CCCC3=C2,> 100,> 100,> 100,> 100,> 100,> 100,> 100,> 100,18.7 µM,> 100,5.52,> 100,5.81,> 100,> 100 µM,> 100,> 100,> 100,> 100,> 100
